According to patent US7884136B2, “Modified-release formulations of a bupropion salt” (Biovail Laboratories International S.R.L., priority 2005, dated 2011):

Assay: Shelf life stability program of bupropion HBr, 25° C./60% RH, 3 and 6 months, HPLC
Type: physicochemical
Settings: 25° C., R.H. 60%; for Chromatographic purity B) (HPLC) 4) 2-N-(tert-Butyl)-aminopropiophenone / Chromatographic purity B) (HPLC) 5) single unknown impurity (each): LOQ 0.02%, LOD 0.002%; for Chromatographic purity A) (HPLC) 1) 3′-Chloropropiophenone / Chromatographic purity A) (HPLC) 3) 3′-Chlorobenzoic acid / Chromatographic purity A) (HPLC) 2) 3′-Chloro-2-bromopropiophenone: LOQ 0.05%; for Chromatographic purity A) (HPLC) 1) 3′-Chloropropiophenone / Chromatographic purity A) (HPLC) 3) 3′-Chlorobenzoic acid: LOD 0.01%; for Chromatographic purity A) (HPLC) 2) 3′-Chloro-2-bromopropiophenone: LOD 0.04%
Procedure: The stability of bupropion HBr was studied over a longer term under conditions meant to approximate standard storage or shelf conditions. Samples were prepared in closed containers and subjected to long-term storage at 25° C.+2° C. and 60%+5% RH in a stability chamber. The samples were analyzed by HPLC prior to being placed in the stability chamber (time 0) and after 3 months and 6 months. The amounts of the main degradation products present at time 0 were compared with the amounts present at 3 months and 6 months. As shown in Table 77-79 three different batches of bupropion HBr were tested. As in Example 10 each sample was tested under two HPLC assay conditions to identify 6 impurities or groups of impurities as described in Example 10.

## Br.CC(NC(C)(C)C)C(=O)c1cccc(Cl)c1 (stereo not drawn) [Bupropion•HBr]
Batch D00894, 12 months
  Assay (HPLC): 99.6 % on d.b.
  Chromatographic purity (HPLC: A + B) Total impurities: 0.2%
  Chromatographic purity B) (HPLC) 6) total unknown impurities: 6) 0.07%
  Description (white or almost white crystalline powder): conform
  Identification IR, HPLC: positive
  Water content (K.F.): 0.05%
  Chromatographic purity B) (HPLC) 4) 2-N-(tert-Butyl)-aminopropiophenone: 4) 0.05%
  Chromatographic purity B) (HPLC) 5) single unknown impurity (each): 5) 0.05%
  Chromatographic purity A) (HPLC) 1) 3′-Chloropropiophenone: 1) n.d.
  Chromatographic purity A) (HPLC) 3) 3′-Chlorobenzoic acid: 3) 0.05%
  Chromatographic purity A) (HPLC) 2) 3′-Chloro-2-bromopropiophenone: 2) n.d.
Batch D00894, time 0
  Assay (HPLC): 99.6 % on d.b.
  Chromatographic purity (HPLC: A + B) Total impurities: 0.1%
  Chromatographic purity B) (HPLC) 6) total unknown impurities: 6) 0.04%
  Description (white or almost white crystalline powder): conform
  Identification IR, HPLC: positive
  Water content (K.F.): 0.05%
  Chromatographic purity B) (HPLC) 4) 2-N-(tert-Butyl)-aminopropiophenone: 4) 0.04%
  Chromatographic purity B) (HPLC) 5) single unknown impurity (each): 5) 0.04%
  Chromatographic purity A) (HPLC) 1) 3′-Chloropropiophenone: 1) n.d.
  Chromatographic purity A) (HPLC) 3) 3′-Chlorobenzoic acid: 3) n.q.
  Chromatographic purity A) (HPLC) 2) 3′-Chloro-2-bromopropiophenone: 2) n.d.
Batch D00895, 3 months
  Assay (HPLC): 99.5 % on d.b.
  Chromatographic purity (HPLC: A + B) Total impurities: 0.1%
  Chromatographic purity B) (HPLC) 6) total unknown impurities: 6) 0.05%
  Description (white or almost white crystalline powder): conform
  Identification IR, HPLC: positive
  Water content (K.F.): 0.04%
  Chromatographic purity B) (HPLC) 4) 2-N-(tert-Butyl)-aminopropiophenone: 4) 0.03%
  Chromatographic purity B) (HPLC) 5) single unknown impurity (each): 5) 0.04%
  Chromatographic purity A) (HPLC) 1) 3′-Chloropropiophenone: 1) n.q.
  Chromatographic purity A) (HPLC) 3) 3′-Chlorobenzoic acid: 3) n.q.
  Chromatographic purity A) (HPLC) 2) 3′-Chloro-2-bromopropiophenone: 2) n.d.
Batch D00895, 6 months
  Assay (HPLC): 100.1 % on d.b.
  Chromatographic purity (HPLC: A + B) Total impurities: 0.1%
  Chromatographic purity B) (HPLC) 6) total unknown impurities: 6) 0.02%
  Description (white or almost white crystalline powder): conform
  Identification IR, HPLC: positive
  Water content (K.F.): 0.05%
  Chromatographic purity B) (HPLC) 4) 2-N-(tert-Butyl)-aminopropiophenone: 4) 0.05%
  Chromatographic purity B) (HPLC) 5) single unknown impurity (each): 5) n.q.
  Chromatographic purity A) (HPLC) 1) 3′-Chloropropiophenone: 1) 0.05%
  Chromatographic purity A) (HPLC) 3) 3′-Chlorobenzoic acid: 3) n.q.
  Chromatographic purity A) (HPLC) 2) 3′-Chloro-2-bromopropiophenone: 2) n.d.
Batch D00895, 9 months
  Assay (HPLC): 99.4 % on d.b.
  Chromatographic purity (HPLC: A + B) Total impurities: n.q.
  Chromatographic purity B) (HPLC) 6) total unknown impurities: 6) n.q.
  Description (white or almost white crystalline powder): conform
  Identification IR, HPLC: positive
  Water content (K.F.): 0.05%
  Chromatographic purity B) (HPLC) 4) 2-N-(tert-Butyl)-aminopropiophenone: 4) n.d.
  Chromatographic purity B) (HPLC) 5) single unknown impurity (each): 5) n.q.
  Chromatographic purity A) (HPLC) 1) 3′-Chloropropiophenone: 1) n.q.
  Chromatographic purity A) (HPLC) 3) 3′-Chlorobenzoic acid: 3) n.q.
  Chromatographic purity A) (HPLC) 2) 3′-Chloro-2-bromopropiophenone: 2) n.d.
Batch D00895, 12 months
  Assay (HPLC): 99.4 % on d.b.
  Chromatographic purity (HPLC: A + B) Total impurities: 0.2%
  Chromatographic purity B) (HPLC) 6) total unknown impurities: 6) 0.07%
  Description (white or almost white crystalline powder): conform
  Identification IR, HPLC: positive
  Water content (K.F.): 0.04%
  Chromatographic purity B) (HPLC) 4) 2-N-(tert-Butyl)-aminopropiophenone: 4) 0.05%
  Chromatographic purity B) (HPLC) 5) single unknown impurity (each): 5) 0.07%
  Chromatographic purity A) (HPLC) 1) 3′-Chloropropiophenone: 1) n.d.
  Chromatographic purity A) (HPLC) 3) 3′-Chlorobenzoic acid: 3) 0.05%
  Chromatographic purity A) (HPLC) 2) 3′-Chloro-2-bromopropiophenone: 2) n.d.
Batch D00895, time 0
  Assay (HPLC): 99.2 % on d.b.
  Chromatographic purity (HPLC: A + B) Total impurities: 0.1%
  Chromatographic purity B) (HPLC) 6) total unknown impurities: 6) 0.04%
  Description (white or almost white crystalline powder): conform
  Identification IR, HPLC: positive
  Water content (K.F.): 0.04%
  Chromatographic purity B) (HPLC) 4) 2-N-(tert-Butyl)-aminopropiophenone: 4) 0.04%
  Chromatographic purity B) (HPLC) 5) single unknown impurity (each): 5) 0.04%
  Chromatographic purity A) (HPLC) 1) 3′-Chloropropiophenone: 1) n.d.
  Chromatographic purity A) (HPLC) 3) 3′-Chlorobenzoic acid: 3) n.q.
  Chromatographic purity A) (HPLC) 2) 3′-Chloro-2-bromopropiophenone: 2) n.d.
Batch D00896, 3 months
  Assay (HPLC): 99.4 % on d.b.
  Chromatographic purity (HPLC: A + B) Total impurities: 0.1%
  Chromatographic purity B) (HPLC) 6) total unknown impurities: 6) 0.05%
  Description (white or almost white crystalline powder): conform
  Identification IR, HPLC: positive
  Water content (K.F.): 0.04%
  Chromatographic purity B) (HPLC) 4) 2-N-(tert-Butyl)-aminopropiophenone: 4) 0.03%
  Chromatographic purity B) (HPLC) 5) single unknown impurity (each): 5) 0.04%
  Chromatographic purity A) (HPLC) 1) 3′-Chloropropiophenone: 1) n.q.
  Chromatographic purity A) (HPLC) 3) 3′-Chlorobenzoic acid: 3) n.q.
  Chromatographic purity A) (HPLC) 2) 3′-Chloro-2-bromopropiophenone: 2) n.d.
Batch D00896, 6 months
  Assay (HPLC): 100.5 % on d.b.
  Chromatographic purity (HPLC: A + B) Total impurities: 0.1%
  Chromatographic purity B) (HPLC) 6) total unknown impurities: 6) n.q.
  Description (white or almost white crystalline powder): conform
  Identification IR, HPLC: positive
  Water content (K.F.): 0.04%
  Chromatographic purity B) (HPLC) 4) 2-N-(tert-Butyl)-aminopropiophenone: 4) 0.04%
  Chromatographic purity B) (HPLC) 5) single unknown impurity (each): 5) n.q.
  Chromatographic purity A) (HPLC) 1) 3′-Chloropropiophenone: 1) 0.05%
  Chromatographic purity A) (HPLC) 3) 3′-Chlorobenzoic acid: 3) n.q.
  Chromatographic purity A) (HPLC) 2) 3′-Chloro-2-bromopropiophenone: 2) n.d.
Batch D00896, 9 months
  Assay (HPLC): 99.4 % on d.b.
  Chromatographic purity (HPLC: A + B) Total impurities: n.q.
  Chromatographic purity B) (HPLC) 6) total unknown impurities: 6) n.q.
  Description (white or almost white crystalline powder): conform
  Identification IR, HPLC: positive
  Water content (K.F.): 0.04%
  Chromatographic purity B) (HPLC) 4) 2-N-(tert-Butyl)-aminopropiophenone: 4) n.d.
  Chromatographic purity B) (HPLC) 5) single unknown impurity (each): 5) n.q.
  Chromatographic purity A) (HPLC) 1) 3′-Chloropropiophenone: 1) n.q.
  Chromatographic purity A) (HPLC) 3) 3′-Chlorobenzoic acid: 3) n.q.
  Chromatographic purity A) (HPLC) 2) 3′-Chloro-2-bromopropiophenone: 2) n.d.
Batch D00896, 12 months
  Assay (HPLC): 100.3 % on d.b.
  Chromatographic purity (HPLC: A + B) Total impurities: 0.1%
  Chromatographic purity B) (HPLC) 6) total unknown impurities: 6) 0.07%
  Description (white or almost white crystalline powder): conform
  Identification IR, HPLC: positive
  Water content (K.F.): 0.03%
  Chromatographic purity B) (HPLC) 4) 2-N-(tert-Butyl)-aminopropiophenone: 4) 0.05%
  Chromatographic purity B) (HPLC) 5) single unknown impurity (each): 5) 0.07%
  Chromatographic purity A) (HPLC) 1) 3′-Chloropropiophenone: 1) n.d.
  Chromatographic purity A) (HPLC) 3) 3′-Chlorobenzoic acid: 3) n.q.
  Chromatographic purity A) (HPLC) 2) 3′-Chloro-2-bromopropiophenone: 2) n.d.
Batch D00896, time 0
  Assay (HPLC): 99.3 % on d.b.
  Chromatographic purity (HPLC: A + B) Total impurities: 0.1%
  Chromatographic purity B) (HPLC) 6) total unknown impurities: 6) 0.05%
  Description (white or almost white crystalline powder): conform
  Identification IR, HPLC: positive
  Water content (K.F.): 0.06%
  Chromatographic purity B) (HPLC) 4) 2-N-(tert-Butyl)-aminopropiophenone: 4) 0.04%
  Chromatographic purity B) (HPLC) 5) single unknown impurity (each): 5) 0.05%
  Chromatographic purity A) (HPLC) 1) 3′-Chloropropiophenone: 1) n.d.
  Chromatographic purity A) (HPLC) 3) 3′-Chlorobenzoic acid: 3) n.q.
  Chromatographic purity A) (HPLC) 2) 3′-Chloro-2-bromopropiophenone: 2) n.d.
